Measured values published in patent US20260297042A1, “BIARYLAMIDE DERIVATIVES AND THEIR USE AS PKMYT1 INHIBITORS” (CANCER RESEARCH TECHNOLOGY LIMITED, priority 2023, published 2026).

Assays:
[1] = biological target: T1, Human PKMYT1 (Homo sapiens, UniProt Q99640); assay: PKMYT1 biochemical ADP-Glo enzymatic assay; conditions: ADP-Glo; 15 nM PKMYT1 kinase domain, 500 µM ATP, 60 minutes at 26° C.; banded
T1 construct: Human PKMYT1 75-362 was cloned as a TEV cleavable 6xHis fusion; 6xHis (TEV cleavable) (cleaved yes); made in house; host or cells: bacterial cells
T1 sequence (Q99640 75-362): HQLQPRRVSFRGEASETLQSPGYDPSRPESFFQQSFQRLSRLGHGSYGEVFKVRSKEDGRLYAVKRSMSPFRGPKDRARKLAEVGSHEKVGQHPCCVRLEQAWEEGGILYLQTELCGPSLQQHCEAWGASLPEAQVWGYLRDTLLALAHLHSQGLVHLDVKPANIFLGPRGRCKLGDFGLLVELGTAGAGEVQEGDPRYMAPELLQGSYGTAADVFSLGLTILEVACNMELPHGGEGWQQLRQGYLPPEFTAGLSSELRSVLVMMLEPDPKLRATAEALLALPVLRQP
In short: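 Purified untagged human PKMYT1 75-362 at 15 nM final was tested in HEPES pH 7.5 with MgCl2, EGTA, Brij-35 and 1% DMSO. Intrinsic ATPase activity was measured with 500 uM ATP over 60 min at 26° C. ADP-Glo luminescence was read and IC50 fitted from 10-point, 3-fold dilution curves.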

[2] = biological target: T2, WEE1 (Homo sapiens, UniProt P30291); assay: Selectivity versus WEE1 assay (ADP-Glo enzymatic assay); type: biochemical; conditions: banded
T2 construct: purchased Thermo Fisher PR7373A
T2 sequence (P30291 whole entry): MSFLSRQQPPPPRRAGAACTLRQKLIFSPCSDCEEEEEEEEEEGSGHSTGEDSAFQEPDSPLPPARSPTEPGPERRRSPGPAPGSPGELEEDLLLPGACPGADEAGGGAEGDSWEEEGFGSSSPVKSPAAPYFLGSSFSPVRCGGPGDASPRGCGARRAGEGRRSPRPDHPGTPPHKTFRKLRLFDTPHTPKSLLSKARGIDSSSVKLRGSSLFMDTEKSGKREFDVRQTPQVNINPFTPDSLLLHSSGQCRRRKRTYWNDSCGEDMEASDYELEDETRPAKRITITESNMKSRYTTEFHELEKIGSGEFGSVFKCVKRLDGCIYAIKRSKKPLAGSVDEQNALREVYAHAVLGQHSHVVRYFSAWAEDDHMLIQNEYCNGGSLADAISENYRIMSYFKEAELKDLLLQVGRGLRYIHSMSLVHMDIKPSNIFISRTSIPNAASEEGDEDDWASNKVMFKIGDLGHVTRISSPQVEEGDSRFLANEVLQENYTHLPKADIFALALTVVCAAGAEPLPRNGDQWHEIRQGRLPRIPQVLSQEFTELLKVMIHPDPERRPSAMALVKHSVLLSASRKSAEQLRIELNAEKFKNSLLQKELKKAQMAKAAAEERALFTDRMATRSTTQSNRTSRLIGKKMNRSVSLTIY
In short: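 WEE1 at 15 nM final in 50 mM HEPES pH 7.5, 10 mM MgCl2, 1 mM EGTA, 0.01% Brij-35, 1% DMSO; reaction started with 30 µM ATP, 60 min at 26 °C. ADP-Glo luminescence; IC50 from dose-response curves, replicates within 3-fold and r2 >0.9.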

[3] = test system: OVCAR3 cells; assay: Cancer cell line proliferation assay, nuclear count, OVCAR3 (CCNE1-amplified); type: cell-based; conditions: banded
Method: (§1) h-TERT-RPE1 TP53−/− and CCNE1 high expressing clones (clone cell lines 7 and 15) were treated with test compounds dissolved in DMSO at serially diluted concentrations alongside a DMSO only control for around 6 population doublings time. Cells were then fixed with 4% Paraformaldehyde and the cell nuclei were stained with DAPI (Sigma D9542). Images covering each well were acquired by an Opera Phenix® High-Content Screening System (PerkinElmer). Image analysis was performed using Harmony® high-content analysis software (PerkinElmer). Data analysis was performed using Microsoft Excel® and GI50 estimates generated with GraphPad Prism v9. Percent nuclear count was compared to vehicle control wells and used to measure inhibition of proliferation.
(§2) Cancer cell lines with either normal (KYSE-30) or amplified CCNE1 expression (OVCAR3-ovarian cancer) were evaluated for their sensitivity to PKMYT1 inhibitors in a nuclear count assay as described above for h-TERT-RPE1 TP53−/− and a CCNE1 high expressing clones, taking into account the slower cell cycle division times of these lines.

[4] = test system: KYSE-30 cells; assay: Cancer cell line proliferation assay, nuclear count, KYSE-30 (normal CCNE1); type: cell-based; conditions: Homo sapiens, normal CCNE1 expression, banded, read-out: KYSE30 GI50
Method: as §1, §2

[5] = test system: OVCAR 3 cells; assay: Cancer cell line proliferation assay, ATP-based cell viability (Cell Titre Glow), OVCAR 3 (CCNE1-amplified); conditions: KYSE30 (normal CCNE1) GI50 vs. OVCAR 3 (CCNE1-amplified) GI50
In short: (§3)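 GI50 values, the concentrations halving cell growth, were derived from ATP-based luminescence (Cell Titre Glo) after PKMYT1 inhibitor exposure. Cells tested were OVCAR 3, an ovarian line with amplified CCNE1, and KYSE-30, which has normal CCNE1.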

[6] = test system: KYSE-30 cells; assay: Cancer cell line proliferation assay, ATP-based cell viability (Cell Titre Glow), KYSE-30 (normal CCNE1); conditions: Homo sapiens, KYSE-30 cells (normal CCNE1), concentration that achieves 50% cell growth proliferation inhibition, read-out: KYSE30 Gl50
In short: as §3

- IC50 [1]: < 0.05 µM
- IC50 ([2]; ADP-Glo, 15 nM WEE1, 60 minutes at 26° C.): 1 to 11 µM
- PKMYT1 vs. WEE1 selectivity ([2]; fold difference in selectivity for PKMYT1 over WEE1, ">N" = at least in this band but could be higher): X (100-<1000 fold)
- GI50 ([3]; Homo sapiens, OVCAR-3, CCNE1-amplified ovarian cancer, nuclear count): < 0.5 µM
SMILES: CCN(CC)C(=O)Cn1cc(C)c(Nc2ncc(C(=O)Nc3c(C)ccc(O)c3C)s2)n1 [BAA-207, 2-[[1-[2-(diethylamino)-2-oxo-ethyl]-4-methyl-pyrazol-3-yl]amino]-N-(3-hydroxy-2,6-dimethyl-phenyl)thiazole-5-carboxamide]
- Selectivity ratio KYSE30 GI50 vs. OVCAR3 GI50 ([3]; GI50 ratio KYSE30 vs. OVCAR3, >N = at least in this band): Z (>30 fold)
- GI50 [4]: 3 to 10 µM
- Selectivity ratio KYSE30 Gl50 vs. OVCAR3 Gl50 [5]: Y (>20 fold)
- GI50 [6]: > 5 µM
